Assay results from ChEMBL document CHEMBL1153927, “Benzimidazolone-based serotonin 5-HT1A or 5-HT7R ligands: synthesis and biological evaluation” (Bioorg Med Chem Lett, 2009).
pKi: −log10 of the molar value.

Tests used:
[1] = target: 5-hydroxytryptamine receptor 7 (Homo sapiens, UniProt P34969); test: Inhibition of human 5HT7 receptor expressed in HEK293 cells by competitive binding assay; type: cell-based
[2] = target: T1, 5-hydroxytryptamine receptor 1A (Rattus norvegicus, UniProt P19327); test: Inhibition of rat hippocampus 5HT1A receptor by competitive binding assay; type: tissue-based
T1 sequence (P19327 whole entry): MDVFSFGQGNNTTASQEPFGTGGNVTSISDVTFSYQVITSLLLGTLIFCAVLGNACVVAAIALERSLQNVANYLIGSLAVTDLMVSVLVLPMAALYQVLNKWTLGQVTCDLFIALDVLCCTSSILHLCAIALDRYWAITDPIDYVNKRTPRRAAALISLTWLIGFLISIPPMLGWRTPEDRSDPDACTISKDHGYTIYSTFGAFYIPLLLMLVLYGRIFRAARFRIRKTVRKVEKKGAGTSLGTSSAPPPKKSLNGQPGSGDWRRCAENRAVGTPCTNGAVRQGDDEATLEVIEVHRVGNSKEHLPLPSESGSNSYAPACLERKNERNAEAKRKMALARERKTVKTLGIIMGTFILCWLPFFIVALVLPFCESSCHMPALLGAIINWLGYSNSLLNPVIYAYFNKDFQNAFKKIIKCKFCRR

Sequence of 5-hydroxytryptamine receptor 7 (P34969 whole entry): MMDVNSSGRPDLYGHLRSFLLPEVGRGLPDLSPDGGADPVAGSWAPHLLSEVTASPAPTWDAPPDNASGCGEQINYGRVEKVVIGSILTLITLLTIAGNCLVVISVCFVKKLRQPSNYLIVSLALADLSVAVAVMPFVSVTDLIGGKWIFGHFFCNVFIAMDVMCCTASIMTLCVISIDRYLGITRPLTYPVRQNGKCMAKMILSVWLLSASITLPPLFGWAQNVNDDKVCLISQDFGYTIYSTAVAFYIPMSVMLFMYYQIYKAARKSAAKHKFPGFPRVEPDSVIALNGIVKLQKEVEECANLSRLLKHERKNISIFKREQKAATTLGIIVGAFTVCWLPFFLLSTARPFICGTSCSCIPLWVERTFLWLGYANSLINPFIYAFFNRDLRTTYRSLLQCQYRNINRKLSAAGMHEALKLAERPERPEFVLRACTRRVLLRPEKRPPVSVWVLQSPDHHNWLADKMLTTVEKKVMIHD

| Compound | pKi [1] | pKi [2] |
| --- | --- | --- |
| COc1ccccc1N1CCN(Cc2ccn(-c3ccccc3C)c2)CC1 | 8.37 | – |
| O=c1n(CCN2CCN(c3ccccc3)CC2)c2ccccc2n1-c1ccccc1 | 5.91 | 6.33 |
| O=c1[nH]c2ccccc2n1CCCCN1CCN(c2ccccc2)CC1 | 7.32 | 7.08 |
| COc1ccccc1N1CCN(CCCCn2c(=O)[nH]c3ccccc32)CC1 | 7.59 | 8.22 |
| COc1ccccc1N1CCN(CCCCCn2c(=O)[nH]c3ccccc32)CC1 | 7.42 | 7.48 |
| COc1ccc(-n2c(=O)n(CCN3CCN(c4ccccc4OC)CC3)c3ccccc32)cc1 | 6.53 | 7.66 |
| COc1ccc(-n2c(=O)n(CCCN3CCN(c4ccccc4OC)CC3)c3ccccc32)cc1 | 6.77 | 7.59 |
| COc1ccc(-n2c(=O)n(CCCCN3CCN(c4ccccc4OC)CC3)c3ccccc32)cc1 | 6.57 | 7.44 |
| COc1ccccc1N1CCN(CCn2c(=O)[nH]c3ccccc32)CC1 | 5.74 | 7.60 |
| COc1cccc(-n2c(=O)n(CCN3CCN(c4ccccc4)CC3)c3ccccc32)c1 | 6.06 | 6.19 |
| COc1ccc(-n2c(=O)n(CCN3CCN(c4ccccc4)CC3)c3ccccc32)cc1 | 6.25 | 6.47 |
| Cc1ccccc1N1CCN(CCn2c(=O)n(-c3ccccc3)c3ccccc32)CC1 | 5.73 | 6.77 |
| Cc1ccccc1-n1c(=O)n(CCN2CCN(c3ccccc3)CC2)c2ccccc21 | 6.04 | 6.20 |
| COc1ccccc1N1CCN(CCCn2c(=O)[nH]c3ccccc32)CC1 | 7.40 | 8.47 |
| O=c1[nH]c2ccccc2n1CCCN1CCN(c2ccccc2)CC1 | 6.61 | 7.59 |
| O=c1[nH]c2ccccc2n1CCCCCCN1CCN(c2ccccc2)CC1 | 7.70 | 7.32 |
| O=c1[nH]c2ccccc2n1CCCCCN1CCN(c2cccc(Cl)c2)CC1 | 7.96 | 7.18 |
| O=c1[nH]c2ccccc2n1CCN1CCN(c2ccccc2)CC1 | 5.99 | 6.41 |
| O=c1[nH]c2ccccc2n1CCCCCN1CCN(c2ccccc2)CC1 | 8.22 | 6.57 |
| COc1cccc(-n2c(=O)n(CCN3CCN(c4ccccc4C)CC3)c3ccccc32)c1 | 5.60 | 6.74 |
| Cc1ccccc1N1CCN(CCn2c(=O)n(-c3ccccc3C)c3ccccc32)CC1 | 4.75 | 6.43 |
| O=c1[nH]c2ccccc2n1CCCCCN1CCN(c2ccc(Cl)cc2)CC1 | 8.15 | 6.34 |
| COc1ccccc1N1CCN(CCCCCCn2c(=O)[nH]c3ccccc32)CC1 | 7.11 | 7.92 |
